Values quoted from earlier work in article PMC3657752 (Inflammatory bowel diseases, 2011).

Columns and labels:
[1] = tested on: Experimental Autoimmune Encephalomyelitis (EAE) model; settings: promoting permissive remyelination of spinal cord
[2] = tested on: colorectal, colon, and breast cancer models

## CCN(CC)CCNc1ccc2ncn3c4ccc(O)cc4c(=O)c1c23 [Symadex]
[1]
  activity in EAE model: active
[2]
  activity in models of colorectal, colon, and breast cancer: demonstrated activity
